Two compounds from patent US20250059231A1, “Protease inhibitors” (priority 2021, published 2025) can be followed below.

Structures are written as SMILES. Entries after “also recorded” stand apart in the source; their conditions may differ. Where a SMILES comes first, the peptide text is derived from it. The star is where a group is joined. Palmitoyl = CCCCCCCCCCCCCCCC(=O)*

One data set addresses T1, DENV protease (Dengue virus type 2, UniProt P29990).
T1 construct: The virus-encoded dengue protease comprises the amino-terminal 180 amino acids of NS3 (NS3pro) of the polyprotein
As to the kind of experiment: biochemical. Conditions: for inhibition at 50 µM: read-out: inhibition of DENV. The procedure, abridged:
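DENV protease (100 nM) was pre-incubated 15 min with inhibitors in 50 mM Tris-HCl pH 9.0, 10% ethylene glycol, 0.0016% Brij 58. FRET substrate (50 μM final) started the reaction, monitored 15 min as RFU/s slope. IC50 came from triplicate means versus concentration.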

In data set [1] the test system is Dengue virus 2 (DENV2, ATCC VR-1584). As to the kind of experiment: DENV2 infection in AG129 mice: viral load in plasma (plaque assay). The class given is in vivo. Conditions: b.i.d. How it is done: The purpose of this study was to determine the efficacy of the compounds on Dengue virus 2 (DENV2, ATCC® VR-1584™) infection in AG129 mice.
Six groups of AG129 mice, 6-8 weeks old, with 9 mice per group were used to test compounds according to table 3.1.1. Animal room environment was monitored for temperature and relative humidity twice per day. The temperature range was 22° C.±3° C. and humidity range was 30-70%. The animals were provided with 12 hours light and 12 hours darkness. Feed and drinking water was provided ad libitum. Compounds 43 and 113 were tested.
Twenty-four hours post treatment (Day 0), animals were injected intraperitoneally (IP) with 0.2 ml of virus suspension (˜5×10^7/animal).
Administration of compounds and vehicle to animals started twenty four hours before infection (Day −1). Animals were treated daily (From Day-1 to day 4) as per the experimental design shown below in table 3.1.5. Animals were monitored for general clinical signs, morbidity and mortality. Body weights were measured daily.
Blood was collected on days-1, 0, 1, 2, 3, 4 to 5.
(§1) BHK-21 cells were cultured to approximately 80% confluency in 24-well plates (NUNC, NY, USA). Plasma samples were 10-fold serially diluted in RPMI 1640 (GIBCO). BHK-21 monolayers were infected with 100 μl of each virus dilution. After incubation at 37° C. and 5% CO2 atmosphere for one hour with rocking at 15 min intervals, the medium was decanted and 1 ml of 1% (w/v)carboxymethyl cellulose in RPMI supplemented with 2% FCS was added to each well. After four days incubation at 37° C. in 5% CO2, the cells were fixed with 4% paraformaldehyde and stained for 30 min with […] of 1% crystal violet dissolved in 37% formaldehyde. After thorough rinsing with water, plates were dried and the plaques were scored visually.
The Mean±SD Log10PFU/ml, relative Mean±SD spleen weight, Mean±SD biomarker concentrations were estimated in each group. Significant differences between group means and control were analyzed by one-way ANOVA, followed by a Dunnett's multiple comparison test, using GraphPad Prism 5 at 95% confidence levels. A p value of <0.05 was considered as significant.

The next data set concerns dengue virus. As to the kind of experiment: In vivo assay using subcutaneous vs intraperitoneal administration, plaque assay in mouse plasma. More on the design: species or system mice. Conditions: for therapeutic efficacy by plaque assays in mouse plasma through the treatment period / plaque assay in mouse plasma: 20 mg/kg (5h post infection); for efficacy against dengue virus infection after subcutaneous administration: subcutaneous vs other routes of administration, mice. Here is the method: FIG. 5B-viral load (plaque assay) in plasma of mice following treatment with vehicle or with compound 113 (20 mg/kg, b.i.d. IP and SC starting at 5h post-infection). Error bars are Mean±SEM.
as §1
These studies were largely performed as in Example 17, with a difference found in the administration of compounds of the invention. […] In this example the compounds of the invention are administered using subcutaneous administration, and compound 113 was used as exemplary for compounds according to the invention.
Results are shown in the table below, where compounds were used at 20 mg/kg (5h post infection). Antiviral activity is much improved after subcutaneous administration, with a longer lasting effect.

Data set [2] can be described thus: Tissue distribution (biodistribution) in rats. The class given is in vivo. Conditions: FIG. 5C after intravenous injection. The text has this:
FIG. 5C-tissue distribution after intravenous injection in rats, measured by ratio concentration tissue over plasma.
Following administration, molecules reach the systemic circulation via either the blood capillaries or the lymphatic system.

For a further data set, the target named is T2, WNV protease (West Nile virus, UniProt P06935).
T2 construct: a trypsin-like serine protease domain in the N-terminal region of the flaviviral NS3 proteins
The experiment in a line: WNV protease assay (analogous procedure). The class given is biochemical. Conditions: at 50 μM. The procedure, abridged:
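Adapted from the DENV protease assay: inhibitors preincubated 15 min with protease (DENV at 100 nM) in 50 mM Tris-HCl pH 9.0, 10% ethylene glycol, 0.0016% Brij 58, then FRET substrate (50 μM final) added.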

T1 sequence (P29990 1398-1437): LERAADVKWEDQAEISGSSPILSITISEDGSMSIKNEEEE
T1 sequence (P29990 1476-1653): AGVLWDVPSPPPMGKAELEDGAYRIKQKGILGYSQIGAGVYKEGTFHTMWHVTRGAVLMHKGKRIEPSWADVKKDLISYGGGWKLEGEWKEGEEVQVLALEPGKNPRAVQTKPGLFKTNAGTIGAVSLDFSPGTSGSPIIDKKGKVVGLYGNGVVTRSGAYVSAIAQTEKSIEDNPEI
T2 sequence (P06935 1424-1463): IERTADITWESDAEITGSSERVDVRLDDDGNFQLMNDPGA
T2 sequence (P06935 1502-1679): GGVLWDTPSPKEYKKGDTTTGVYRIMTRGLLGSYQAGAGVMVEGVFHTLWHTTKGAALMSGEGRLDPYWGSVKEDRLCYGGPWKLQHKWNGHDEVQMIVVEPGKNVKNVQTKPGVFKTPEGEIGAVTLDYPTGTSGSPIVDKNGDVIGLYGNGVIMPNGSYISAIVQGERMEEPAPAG

`CCCCCCCCCCCCCCCC(=O)N[C@@H](CCCCN)CC(=O)N[C@@H](C)C(=O)N[C@@H](C)CC(=O)N[C@H](CCCCN)C(N)=O` (stereo in doubt) [compound 113]: the inhibition (as a rule, the change of the read-out against control, counted positive when it falls) at 50 µM on DENV protease was not below 25%. Besides, the “inhibition of DENV protease (in words)” value against DENV protease (biochemical and cellular infection assays) is “potent and specific inhibition”. Moreover, the “Mean + SD Log10PFU/ml Plasma” value in data set [1] (Day 2, 10 mg/kg I.P) was 3.79 ± 0.10 Log10PFU/ml; in data set [1] (Day 2, 20 mg/kg I.P), 3.07 ± 0.28 Log10PFU/ml; in data set [1] (Day 4, 10 mg/kg I.P) it was 4.65 ± 0.08 Log10PFU/ml; in data set [1] (Day 5, 10 mg/kg I.P) it was 3.66 ± 0.11 Log10PFU/ml; in data set [1] (Day 5, 20 mg/kg I.P) it was 3.77 ± 0.11 Log10PFU/ml. Moreover, in the data set on dengue virus, the “therapeutic efficacy by plaque assays in mouse plasma through the treatment period” value is reported as “good therapeutic efficacy”. Further, the “plaque assay in mouse plasma” value with dengue virus (Day 3, IP) is given as 4.70 ± 0.75; in the data set on dengue virus (Day 3, SC), 3.58 ± 0.34; with dengue virus (Day 4, IP), 4.23 ± 0.52; in the data set with dengue virus (Day 4, SC), 3.26 ± 0.49. For the same compound, the “efficacy against dengue virus infection after subcutaneous administration” value with dengue virus is listed as “great efficacy; also recorded: improved efficacy”. Besides, in data set [2], the “tissue distribution, concentration in tissue (liver and spleen) versus plasma” value is recorded as “could reach the main target sites of dengue”.
As for `CCCCCCCCCCCCCCCC(=O)N[C@@H](CCCNC(=N)N)C(=O)N[C@@H](CCC(N)=O)C(=O)N[C@@H](Cc1ccccc1)C(N)=O` [compound 43] (Palmitoyl-Arg-Gln-Phe-NH2), the inhibition at 50 µM on DENV protease and at WNV protease was not below 25% throughout. Besides, the “Mean + SD Log10PFU/ml Plasma” value stood at 3.36 ± 0.41 Log10PFU/ml in data set [1] (Day 2, 10 mg/kg I.P); 3.48 ± 0.25 Log10PFU/ml in data set [1] (Day 2, 20 mg/kg I.P); 3.28 ± 0.21 Log10PFU/ml in data set [1] (Day 5, 10 mg/kg I.P); 3.06 ± 0.31 Log10PFU/ml in data set [1] (Day 5, 20 mg/kg I.P). Besides, the “therapeutic efficacy by plaque assays in mouse plasma through the treatment period” value with dengue virus is given as “good therapeutic efficacy”. Besides, the “plaque assay in mouse plasma” value is on record as 4.32 ± 0.45 with dengue virus (Day 3, IP); 3.43 ± 0.304 in the data set with dengue virus (Day 3, SC); 4.38 ± 0.41 with dengue virus (Day 4, IP); 3.34 ± 0.40 with dengue virus (Day 4, SC). Besides, in the data set on dengue virus, the “efficacy against dengue virus infection after subcutaneous administration” value is listed as “great efficacy”.
